Measurements from the supplement of paper PMC10307832.

Legend:
Assay in all cases: relative viability (nuclei count vs DMSO), 5 days (fraction); higher = more cells survive
LU99A = tested on: LU99A
Method in brief: (§1)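 A single step with final 0.05% Triton X-100, 1% formaldehyde and 1 ug/ml Hoechst fixed the cells and stained nuclei 5 days after treatment. Lung cancer cell lines in 1536-well plates had been treated by pin tool the day after seeding with one drug alone or a fixed anchor-drug dose plus five library-drug doses (not always all listed) in √10 steps, and nuclei were counted on 4× images. Relative viability is the ratio of nuclei in treated wells to nuclei in vehicle wells, taken as the median of duplicate plates.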

NCI-H358 = tested on: NCI-H358
Method in brief: as §1

LXF-289 = tested on: LXF-289
Method in brief: as §1

PC-3 [JPC-3] = tested on: PC-3 [JPC-3]
Method in brief: as §1

BEN = tested on: BEN
Method in brief: as §1

LCLC-97TM1 = tested on: LCLC-97TM1
Method in brief: as §1

NCI-H1651 = tested on: NCI-H1651
Method in brief: as §1

LC-2-ad = tested on: LC-2-ad
Method in brief: as §1

NCI-H2087 = tested on: NCI-H2087
Method in brief: as §1

NCI-H661 = tested on: NCI-H661
Method in brief: as §1

`O=c1cc(-c2cccc3c2Sc2ccccc2S3)oc(N2CCOCC2)c1` + CS(=O)(=O)CCNCc1ccc(-c2ccc3ncnc(Nc4ccc(OCc5cccc(F)c5)c(Cl)c4)c3c2)o1 [Lapatinib] (partner 2 µM) was tested, and the relative viability (LU99A; first compound 0.08 µM) was 1.07, the relative viability (LU99A; first compound 0.253 µM) was 0.954 and the relative viability (LU99A; first compound 0.8 µM) was 1.49. It also gave a relative viability (LU99A; first compound 2.53 µM) of 1.03, a relative viability (LU99A; first compound 8 µM) of 1.11 and a relative viability (NCI-H358; first compound 0.08 µM) of 0.407. For the same compound, the relative viability (NCI-H358; first compound 0.253 µM) was 0.392, the relative viability (NCI-H358; first compound 0.8 µM) was 0.42 and the relative viability (NCI-H358; first compound 2.53 µM) was 0.424. For the same compound, the relative viability (NCI-H358; first compound 8 µM) was 0.467, the relative viability (LXF-289; first compound 0.08 µM) was 0.87 and the relative viability (LXF-289; first compound 0.253 µM) was 0.935. The relative viability (LXF-289; first compound 0.8 µM) was 0.942, the relative viability (LXF-289; first compound 2.53 µM) was 0.856 and the relative viability (LXF-289; first compound 8 µM) was 0.93. It also gave a relative viability (PC-3 [JPC-3]; first compound 0.08 µM) of 0.44, a relative viability (PC-3 [JPC-3]; first compound 0.253 µM) of 0.497 and a relative viability (PC-3 [JPC-3]; first compound 0.8 µM) of 0.435. The relative viability (PC-3 [JPC-3]; first compound 2.53 µM) was 0.437, the relative viability (PC-3 [JPC-3]; first compound 8 µM) was 0.532 and the relative viability (BEN; first compound 0.08 µM) was 0.703. The relative viability (BEN; first compound 0.253 µM) was 0.706, the relative viability (BEN; first compound 0.8 µM) was 0.81 and the relative viability (BEN; first compound 2.53 µM) was 0.734. For the same compound, the relative viability (BEN; first compound 8 µM) was 1.05, the relative viability (LCLC-97TM1; first compound 0.08 µM) was 0.753 and the relative viability (LCLC-97TM1; first compound 0.253 µM) was 0.781. For the same compound, the relative viability (LCLC-97TM1; first compound 0.8 µM) was 1.25, the relative viability (LCLC-97TM1; first compound 2.53 µM) was 0.685 and the relative viability (LCLC-97TM1; first compound 8 µM) was 1.18. It also gave a relative viability (NCI-H1651; first compound 0.08 µM) of 0.866, a relative viability (NCI-H1651; first compound 0.253 µM) of 1.06 and a relative viability (NCI-H1651; first compound 0.8 µM) of 0.711. It also gave a relative viability (NCI-H1651; first compound 2.53 µM) of 0.703, a relative viability (NCI-H1651; first compound 8 µM) of 0.953 and a relative viability (LC-2-ad; first compound 0.08 µM) of 0.963. The relative viability (LC-2-ad; first compound 0.253 µM) was 1.04, the relative viability (LC-2-ad; first compound 0.8 µM) was 1.06 and the relative viability (LC-2-ad; first compound 2.53 µM) was 0.921. It also gave a relative viability (LC-2-ad; first compound 8 µM) of 0.956, a relative viability (NCI-H2087; first compound 0.08 µM) of 0.981 and a relative viability (NCI-H2087; first compound 0.253 µM) of 0.98. The relative viability (NCI-H2087; first compound 0.8 µM) was 1.13, the relative viability (NCI-H2087; first compound 2.53 µM) was 0.959 and the relative viability (NCI-H2087; first compound 8 µM) was 1.4. For the same compound, the relative viability (NCI-H661; first compound 0.08 µM) was 0.481, the relative viability (NCI-H661; first compound 0.253 µM) was 0.412 and the relative viability (NCI-H661; first compound 0.8 µM) was 0.543. For the same compound, the relative viability (NCI-H661; first compound 2.53 µM) was 0.464 and the relative viability (NCI-H661; first compound 8 µM) was 0.579.
